Assay results reported in US20260256753A1, “USE OF AN OREXIN 2 RECEPTOR AGONIST FOR IMPROVING RESPIRATORY FUNCTION DURING SLEEP” (TAKEDA PHARMACEUTICAL COMPANY LIMITED, priority 2023, published 2026).

How the values were obtained:
[1] = molecular target: T1, OX2R (Homo sapiens, UniProt O43614); details: OX2R-expressed recombinant cells; cited from earlier work
T1 sequence (O43614 1-444): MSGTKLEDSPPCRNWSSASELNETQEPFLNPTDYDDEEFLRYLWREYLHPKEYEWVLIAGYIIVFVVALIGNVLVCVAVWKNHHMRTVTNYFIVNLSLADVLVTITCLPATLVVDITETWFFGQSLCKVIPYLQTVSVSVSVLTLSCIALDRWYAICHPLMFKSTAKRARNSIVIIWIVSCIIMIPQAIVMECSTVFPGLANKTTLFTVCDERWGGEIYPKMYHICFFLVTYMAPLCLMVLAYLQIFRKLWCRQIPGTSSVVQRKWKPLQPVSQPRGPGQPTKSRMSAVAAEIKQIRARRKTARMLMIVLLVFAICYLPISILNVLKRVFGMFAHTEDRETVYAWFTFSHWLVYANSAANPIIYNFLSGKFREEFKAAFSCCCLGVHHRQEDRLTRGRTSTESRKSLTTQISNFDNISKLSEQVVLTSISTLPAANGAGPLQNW

[2] = tested on: patients with obstructive sleep apnea; assay: Phase 1b crossover study in obstructive sleep apnea: upper airway collapsibility index (UACI) during wakefulness; type: in vivo, human
Description: A phase 1b, randomized, double-blind, placebo-controlled, 3-period crossover study was conducted to evaluate the safety, tolerability, pharmacodynamic, and pharmacokinetic effects of overnight intravenous COMPOUND A in patients with obstructive sleep apnea (OSA). This study was planned to further evaluate COMPOUND A intravenous administration (IV) in adults with OSA, hypothesizing that nonwake-promoting exposures of COMPOUND A would increase genioglossal muscle tone and increase airway patency via the increasing activity of hypoglossal motoneurons. The main goal of this study was to evaluate the mechanistic potential of OX2R agonism for treatment of OSA using COMPOUND A IV infusion to determine appropriate use in future trials with an oral OX2R agonist.
Eligible participants were randomly assigned (in a double-blinded manner) to 1 of 6 treatment sequences. In each treatment period, participants underwent 3 UACI assessments, a 10-minute evaluation that tested the key biological mechanism that causes OSA (as described by Osman, A. M., et al., 2019, Sleep, 42 (7), 1-10), followed by an overnight polysomnography (PSG). After the first baseline UACI assessment (U1), an IV infusion regimen of COMPOUND A or placebo was administered over approximately 10 hours to achieve specific plasma concentrations to evaluate the effect of COMPOUND A on the UACI and PSG metrics. […]

[3] = tested on: genioglossus muscle; assay: EMG recording of the genioglossus muscle in anesthetized rats; type: in vivo, rat; details: 1 mg/kg intravenous, 10 min after administration, versus vehicle, FIG. 5
Description: EMG recording of the genioglossus muscle was conducted as described previously (G. H. Zhang, et al.) with slight modifications. Rats were anaesthetized with urethane (2.0 g/kg, intraperitoneal injection). Anesthetic depth was assessed by the reflex responses to paw pinches. The tail vein was cannulated for intravenous drug administration. Each rat was laid on a servo-controlled electric heating pad. The body temperature of the rat was monitored with a rectal probe of the pad and kept at around 37° C. […] After 10 min of baseline recording, vehicle (0.1% [w/v] Polysorbate 80 and 20% [w/v] Captisol solution) or Compound C was administered intravenously and then EMG was recorded for 10 min. EMG was amplified 1,000-fold, band-pass filtered (100-5,000 Hz) using Microelectrode AC Amplifier (Model 1800; A-M systems, Carlsborg, WA, USA), digitized using AD converter (Power 1401; Cambridge Electronic Design, Cambridge, UK), recorded using Spike2 software (Cambridge Electronic Design), and then rectified and integrated with a time constant decay (100 ms) using LabChart software (AD Instruments). […] Bursts were then automatically detected, and burst amplitude was measured. […]

[4] = tested on: rats; assay: Arousal effects after oral administration in rats; type: in vivo, rat; details: oral administration at 10 mg/kg or more

Row | SMILES | recruitment of β-arrestins [1] | upper airway collapsibility as measured by UACI [2] | burst amplitude of the genioglossus muscle [3] | arousal effects [4]
1 | COC(=O)N1CCC[C@H](NS(C)(=O)=O)[C@@H]1CO[C@H]1CC[C@@H](c2ccccc2)CC1 (relative stereo) [Compound A, methyl(2R,3S)-3-((methylsulfonyl)amino)-2-(((cis-4-phenylcyclohexyl)oxy)methyl) piperidine-1-carboxylate] | promote recruitment of β-arrestins | no consistent improvement |  | 
2 | CC(C)(O)C(=O)N1CC(F)(F)[C@H](NS(C)(=O)=O)[C@@H]1Cc1cccc(-c2cc(F)cc(F)c2)c1F [Compound C, N-{(2S,3R)-4,4-difluoro-1-(2-hydroxy-2-methylpropanoyl)-2-[(2,3′,5′-trifluoro[1,1′-biphenyl]-3-yl)methyl]pyrrolidin-3-yl}methanesulfonamide] |  |  | significantly increased burst amplitude | potent arousal effects
